Laboratory results from article PMC12679610, “Impact of supersaturation on growth, critical radius, and size in neomycin nanoparticle crystallization using anti-solvent and CTAB” (RSC Advances, 2025).
Read-outs that look alike come from different tables or passages of the source.

Key:
[1] = set-up: method as in PMID 40028493; conditions: PVP as stabilizer, cited from earlier work
[2] = Induction time measurement by in situ turbidimeter (antisolvent crystallization); assay type: physicochemical; conditions: CTAB 0.6 g kg^−1, 25 °C
Experimental: In this section, the method for the synthesis of neomycin nanoparticles is explained in detail. First, an exact amount of neomycin powder (purity ≥ 95%) was weighed using a digital analytical balance (accuracy: […]) based on the desired equilibrium concentration. The weighed neomycin was then added to 10 g of double-distilled water (25 °C). To ensure complete dissolution, the mixture was homogenized using a magnetic stirrer at controlled speeds of 300, 350, 400, and 450 rpm for 20 minutes. This range of stirring speeds was selected to investigate the effect of shear force on solution homogeneity. After confirming the homogeneity of the neomycin solution, a predetermined amount of CTAB surfactant with a concentration established from prior studies was added to the beaker. To achieve optimal mixing, the stirring system was activated at a constant speed between 300 and 450 rpm, and the mixing process continued until equilibrium was reached. The solution temperature was continuously monitored using a calibrated digital thermometer (±0.1 °C). A turbidity sensor was installed 2 cm from the crystallizer wall to measure changes in turbidity. Pure acetone (HPLC grade) was added dropwise (0.02 mL per drop) at 5-minute intervals. The first signs of physical change (e.g., localized cloudiness) were recorded as the initial saturation point. Acetone addition continued until stable turbidity (supersaturation) was achieved under isothermal conditions (25 °C). The induction time (the interval between initial saturation and supersaturation), as clearly depicted in Fig. 1, Section C (the induction time segment of steps 1 to 4), was measure using a synchronized turbidimeter and reaction timer data. To ensure reproducibility, the entire process was repeated in four independent trials under controlled conditions (constant temperature, humidity, and lighting).
Induction time represents a key parameter in crystallization processes, being predominantly influenced by three factors of supersaturation, temperature, and agitation rate.[29,32] This parameter characterizes the time interval between the onset of initial physical changes (saturated state) and the complete formation of a turbid phase (supersaturated state) within the system. Investigations indicate that both the optimal agitation speed and the application of dynamic shock have a significant influence on the system's supersaturation level.[29,33,35,36] A sudden increase in agitation rate initially induces localized supersaturation reduction through turbulence generation at the interface between unstable and metastable zones. […] CTAB modulates the process by reducing surface energy and stabilizing subcritical clusters, which shortens the nucleation time and broadened the metastable zone. Agitation dynamics initially cause a temporary decrease in localized supersaturation (dynamic shock), followed by a stabilization phase that enables controlled crystal growth.
Methodologically, induction time was measured using both visual observation and in situ turbidimetry.

[3] = Interfacial energy from ln tind versus 1/T^3(ln S)^2 plot; assay type: physicochemical; conditions: CTAB 0.6 g kg^−1, 25 °C
Experimental: Interfacial energy at the solid–liquid interface, can typically be regarded as an intrinsic property of the system.[100] It is indeed a key parameter strongly influenced by the solvent composition and the presence of surfactants such as CTAB.[29,101] In this study, the effect of CTAB at a constant concentration of 0.6 g kg^−1 on the interfacial energy of the crystallization system of neomycin at various concentrations (20, 30, 40, and 50 g kg^−1) was investigated at a temperature of 25 °C. Key system parameters included the density of neomycin (ρ = 640 kg m^−3), measured using the volume displacement method; the shape factor (f = 0.058)[16,29] and the molar mass (M = 908.88 g mol^−1). […] At various concentrations of neomycin (20, 30, 40, and 50 g kg^−1), a comparison was made between the system stabilized with CTAB and previous studies that utilized PVP as a stabilizer.[29] […] This distinction can be attributed to a significant reduction in surface energy in the presence of CTAB, as well as distinct molecular interactions between neomycin and the cationic surfactant, which subsequently influenced solubility and nucleation behavior.[102] […] The proposed mechanism for this observation includes the effective adsorption of CTAB onto nanoparticle surfaces, alterations in the local solubility of neomycin, and the formation of stable electrical double layers at the interface.[103] Furthermore, increased agitation enhanced mass transfer, improved surfactant distribution, and promoted the formation of stable nuclei, ultimately leading to a significant reduction in surface energy and effective suppression of nanoparticle aggregation.[104]

[4] = initial neomycin 20 g kg solvent^−1
[5] = initial neomycin 30 g kg solvent^−1

NC[C@@H]1O[C@H](O[C@H]2[C@@H](O)[C@H](O[C@@H]3[C@@H](O)[C@H](N)C[C@H](N)[C@H]3O[C@H]3O[C@H](CN)[C@@H](O)[C@H](O)[C@H]3N)O[C@@H]2CO)[C@H](N)[C@@H](O)[C@@H]1O.O=S(=O)(O)O [neomycin sulfate]
Interfacial energy, Motahari et al. [1, 4]: 7.68 mJ m^−2 | Interfacial energy, Motahari et al. [1, 5]: 8.056 mJ m^−2 | Induction time ([2]; 300 rpm, initial neomycin 20 g kg^−1, S 1.18): 112 s | Induction time ([2]; 300 rpm, initial neomycin 20 g kg^−1, S 1.33): 91 s | Induction time ([2]; 300 rpm, initial neomycin 20 g kg^−1, S 1.45): 86 s | Induction time ([2]; 300 rpm, initial neomycin 20 g kg^−1, S 1.66): 79 s | Induction time ([2]; 350 rpm, initial neomycin 30 g kg^−1, S 1.2): 101 s | Induction time ([2]; 350 rpm, initial neomycin 30 g kg^−1, S 1.25): 94 s | Induction time ([2]; 350 rpm, initial neomycin 30 g kg^−1, S 1.28): 89 s | Induction time ([2]; 350 rpm, initial neomycin 30 g kg^−1, S 1.43): 81 s | Induction time ([2]; 350 rpm, initial neomycin 30 g kg^−1, S 1.67): 74 s | Induction time ([2]; 400 rpm, initial neomycin 40 g kg^−1, S 1.29): 99 s | Induction time ([2]; 400 rpm, initial neomycin 40 g kg^−1, S 1.379): 96 s | Induction time ([2]; 400 rpm, initial neomycin 40 g kg^−1, S 1.48): 83 s | Induction time ([2]; 400 rpm, initial neomycin 40 g kg^−1, S 1.66): 76 s | Induction time ([2]; 400 rpm, initial neomycin 40 g kg^−1, S 1.9): 72 s | Induction time ([2]; 450 rpm, initial neomycin 50 g kg^−1, S 1.351): 90 s | Induction time ([2]; 450 rpm, initial neomycin 50 g kg^−1, S 1.408): 84 s | Induction time ([2]; 450 rpm, initial neomycin 50 g kg^−1, S 1.47): 77 s | Induction time ([2]; 450 rpm, initial neomycin 50 g kg^−1, S 1.666): 70 s | Induction time ([2]; 450 rpm, initial neomycin 50 g kg^−1, S 1.785): 64 s | Interfacial energy this work [3, 4]: 1.33 mJ m^−2 | Interfacial energy this work [3, 5]: 1.41 mJ m^−2 | Interfacial energy this work ([3]; initial neomycin 40 g kg solvent^−1): 1.9 mJ m^−2 | Interfacial energy this work ([3]; initial neomycin 50 g kg solvent^−1): 2.14 mJ m^−2
